This is an account of results in patent US5880097A, “Tethered prodrugs” (Terrapin Techologies, Inc., priority 1996, dated 1999).

Test [1] concerns the target T1, MRP system of human erythrocytes (Homo sapiens, UniProt P33527).
T1 construct: from tissue; host or cells: human erythrocytes (membranes; inside-out vesicles)
The test can be described thus: Stimulation of basal Mg+2 stimulated ATPase activity in erythrocyte membranes. In kind it is biochemical. Conditions: 37° C., 30 minutes; for Km / Vmax of ATPase stimulation: average of three determinations. On the procedure: (§1) Two indirect measures of interaction of test compounds in the MRP system of human erythrocytes were used. The first was stimulation of basal Mg^+2 stimulated ATPase activity, the other was inhibition of transport of tritiated dinitrophenyl-S-glutathione.
In the first method, the method of Bartosz, M. et al, Biochem Mol Biol Int (1994) 34:521-529 was used. Briefly, the compounds were added to erythrocyte membranes in a medium containing 100 mM Tris HCl, […], 10 mM MgCl2, 1 mM ATP, 0.1 mM ouabain and 1 mM EGTA with an incubation at 37° C. for 30 minutes. Stimulation of ATPase activity was measured as described.

Test [2] concerns the target T1, MRP system of human erythrocytes. Description: Inhibition of uptake of tritiated DNP-glutathione conjugate by inside-out vesicles of human erythrocytes. In kind it is biochemical. Conditions: for inhibition of labeled conjugate (DNP-GSH) uptake: compound 1 μM, labeled DNP-GSH 5 μM, 15 minutes at 37° C., mean of three trials; for Interaction with MRP pump (reduction of transport of radiolabeled GSH analog): summary in words. On the procedure:
as §1
In the alternative method, the uptake of tritiated DNP-glutathione conjugate by inside-out vesicles of human erythrocytes was determined as described in Akerboom, T. P. M. et al, Biochim Biophys Acta (1992) 1103.:115-119. The labeled DNP-GSH concentration was 5 μM and the compounds were added at a final concentration of 1 μM; uptake of labeled DNP-GSH was measured after 15 minutes incubation at 37° C.

For another test, the target named is T2, GST A1-1 (Homo sapiens, UniProt P08263).
T2 sequence (P08263 1-222): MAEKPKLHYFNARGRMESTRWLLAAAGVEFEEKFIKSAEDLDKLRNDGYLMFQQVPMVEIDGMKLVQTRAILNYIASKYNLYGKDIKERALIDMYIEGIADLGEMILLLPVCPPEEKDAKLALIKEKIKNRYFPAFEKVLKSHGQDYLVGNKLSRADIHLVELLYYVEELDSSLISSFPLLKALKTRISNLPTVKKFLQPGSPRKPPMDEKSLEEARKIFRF
The conditions noted are these: as described in the PCT application WO 95/09866; cited from earlier work.

A further test has as its target GST P1-1 (Homo sapiens, UniProt P09211). Conditions: cited from earlier work.

The structures appear in SMILES notation. *1 amine or outer side, *2 acyl side, *3 side chain or, on linkers, in order; H or OH if unused. Where a SMILES comes first, the peptide text is derived from it. [ ]: non-standard residue; d: D form. The star is where a group is joined. γGlu = O=C(O)[C@H](CCC(=O)[*:2])N[*:1]; dPhg = N[C@@H](C(=O)O)c1ccccc1; Bn = c1ccc(C*)cc1

T1 sequence (P33527 whole entry): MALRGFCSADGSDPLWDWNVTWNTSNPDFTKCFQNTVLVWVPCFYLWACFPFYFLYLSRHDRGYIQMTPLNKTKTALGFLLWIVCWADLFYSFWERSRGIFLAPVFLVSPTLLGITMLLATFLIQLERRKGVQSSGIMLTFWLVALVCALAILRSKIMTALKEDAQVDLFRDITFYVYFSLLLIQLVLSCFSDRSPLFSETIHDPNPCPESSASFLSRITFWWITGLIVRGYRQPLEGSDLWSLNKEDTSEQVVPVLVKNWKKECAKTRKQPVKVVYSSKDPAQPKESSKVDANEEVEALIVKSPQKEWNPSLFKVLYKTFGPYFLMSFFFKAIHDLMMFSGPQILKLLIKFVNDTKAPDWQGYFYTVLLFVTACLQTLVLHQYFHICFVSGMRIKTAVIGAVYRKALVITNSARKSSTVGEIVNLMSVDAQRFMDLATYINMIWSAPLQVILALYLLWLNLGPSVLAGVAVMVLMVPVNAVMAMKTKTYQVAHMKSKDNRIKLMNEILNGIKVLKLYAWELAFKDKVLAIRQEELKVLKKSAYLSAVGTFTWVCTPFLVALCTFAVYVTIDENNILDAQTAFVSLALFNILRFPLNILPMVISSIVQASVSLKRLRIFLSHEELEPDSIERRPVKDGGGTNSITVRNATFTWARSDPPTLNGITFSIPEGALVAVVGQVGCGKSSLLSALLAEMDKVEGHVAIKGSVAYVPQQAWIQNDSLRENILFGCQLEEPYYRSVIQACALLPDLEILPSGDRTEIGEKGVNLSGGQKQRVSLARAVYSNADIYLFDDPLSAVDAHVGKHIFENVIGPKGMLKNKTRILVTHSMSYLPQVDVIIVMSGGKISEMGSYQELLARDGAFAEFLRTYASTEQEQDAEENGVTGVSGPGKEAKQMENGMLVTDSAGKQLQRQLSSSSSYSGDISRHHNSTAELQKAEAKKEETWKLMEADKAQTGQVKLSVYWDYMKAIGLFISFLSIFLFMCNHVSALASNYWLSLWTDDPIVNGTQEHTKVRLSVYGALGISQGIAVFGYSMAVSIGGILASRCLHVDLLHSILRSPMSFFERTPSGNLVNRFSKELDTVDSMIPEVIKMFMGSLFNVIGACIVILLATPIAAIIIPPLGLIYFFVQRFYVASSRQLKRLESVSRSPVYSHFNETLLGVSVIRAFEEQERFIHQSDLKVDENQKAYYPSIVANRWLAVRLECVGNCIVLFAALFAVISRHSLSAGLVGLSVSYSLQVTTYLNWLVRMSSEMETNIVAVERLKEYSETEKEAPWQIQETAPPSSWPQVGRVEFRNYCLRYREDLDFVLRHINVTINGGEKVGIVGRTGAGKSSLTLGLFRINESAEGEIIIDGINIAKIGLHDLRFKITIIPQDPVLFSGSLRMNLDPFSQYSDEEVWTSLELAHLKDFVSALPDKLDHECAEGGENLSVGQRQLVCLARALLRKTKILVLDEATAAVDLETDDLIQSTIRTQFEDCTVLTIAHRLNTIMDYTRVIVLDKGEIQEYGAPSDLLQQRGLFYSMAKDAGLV
Sequence of GST P1-1 (P09211 2-210 limits assumed): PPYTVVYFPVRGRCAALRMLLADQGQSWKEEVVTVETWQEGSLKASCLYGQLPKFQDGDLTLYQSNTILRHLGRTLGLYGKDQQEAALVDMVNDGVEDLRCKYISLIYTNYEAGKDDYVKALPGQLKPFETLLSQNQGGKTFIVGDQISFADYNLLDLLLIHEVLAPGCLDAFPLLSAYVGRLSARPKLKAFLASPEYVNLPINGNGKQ

The term Km denotes the concentration of substrate that gives half-maximal velocity. Take `N[C@@H](CCC(=O)N[C@@H](CSCc1ccccc1)C(=O)NCCC(=O)O)C(=O)O` [TER 106, γGlu-C(Bz)-βAla]: in test [1], the Km was 1820 µM and the “Vmax of ATPase stimulation” value turned out to be 209.6 mM/mg protein per hr. Also, in test [2], the “inhibition of labeled conjugate (DNP-GSH) uptake” value (shortened to “inhibition of labeled conjugate”) is 66.2% and the “Interaction with MRP pump (reduction of transport of radiolabeled GSH analog)” value is given as “interact with MRP so as to reduce the transport of radiolabeled GSH analog”.

Regarding `N[C@@H](CCC(=O)N[C@@H](CSCc1ccccc1)C(=O)N[C@@H](C(=O)O)c1ccccc1)C(=O)O` [TER 117, γGlu-C(Bz)-.o slashed.Gly] (γGlu-Cys(Bn)-[dPhg]-OH), in test [1], the “Stimulation of ATPase activity” value is listed as “did not stimulate ATPase activity”. Also, in test [2], the “inhibition of labeled conjugate” value came out at 0.2% and the “Interaction with MRP pump (reduction of transport of radiolabeled GSH analog)” value was “does not”.

Consider `N[C@@H](CCC(=O)N[C@@H](CSCc1ccccc1)C(=O)NCC(=O)O)C(=O)O` [TER 222, γGlu-C(Bz)-Gly], for which, in test [1], the Km stood at 385 µM and the “Vmax of ATPase stimulation” value turned out to be 125.9 mM/mg protein per hr. Further, in test [2], the “inhibition of labeled conjugate” value is 62.5% and the “Interaction with MRP pump (reduction of transport of radiolabeled GSH analog)” value was “interact with MRP so as to reduce the transport of radiolabeled GSH analog”.

On to `N[C@@H](CCC(=O)N[C@@H](CS(=O)(=O)CCOP(=O)(N(CCCl)CCCl)N(CCCl)CCCl)C(=O)N[C@@H](C(=O)O)c1ccccc1)C(=O)O` [TER 286], for which the “Susceptibility to cleavage by GST A1-1” value on GST A1-1 is “particularly susceptible to cleavage”. Further, at GST P1-1 (as described in the PCT application WO 95/09866), the “Susceptibility to cleavage by GST P1-1” value was “particularly susceptible to cleavage”. Also, at GST P1-1 (cells having GST complements high in the P1-1 isoform), the “Isoenzyme specificity of prodrug” value is given as “has the desired isoenzyme specificity”.
